Values of other authors, collected in patent US20230165893A1, “TREATMENT OF VIRAL INFECTIONS” (SULFAGENIX, INC., priority 2020, published 2023).

Conditions: pure elemental sulfur, stated as a contrast, no source given

solubility in carbon disulfide (in words): completely soluble
SMILES: S1SSSSSSS1 [alpha-elemental sulfur, elemental alpha sulfur]
